Reference: the supplement of paper PMC13380429

Key:
Settings in all cases: 72 h
Caco-2 [1] = assay: drug sensitivity score (DSS) for viability; higher = more toxic; extreme values may be limits of the assay
Vero E6 [2] = assay: as above
HepG2 [3] = assay: as above
Calu-3 [4] = assay: as above
Caco-2 [5] = assay: relative viability EC50 (midpoint between 100% and the lowest measured viability); higher = less toxic
Vero E6 [6] = assay: as above
HepG2 [7] = assay: as above
Calu-3 [8] = assay: as above
Caco-2 [9] = assay: cell viability relative to DMSO; higher = less toxic
Vero E6 [10] = assay: as above
HepG2 [11] = assay: as above
Calu-3 [12] = assay: as above
U2OS [13] = assay: drug sensitivity score (DSS) for viability; higher = more toxic; extreme values may be limits of the assay
U2OS [14] = assay: relative viability EC50 (midpoint between 100% and the lowest measured viability); higher = less toxic
U2OS [15] = assay: cell viability relative to DMSO; higher = less toxic

Compound	drug sensitivity score (Caco-2 [1])	drug sensitivity score (Vero E6 [2])	drug sensitivity score (HepG2 [3])	drug sensitivity score (Calu-3 [4])	relative viability EC50 (Caco-2 [5]) [µM]	relative viability EC50 (Vero E6 [6]) [µM]	relative viability EC50 (HepG2 [7]) [µM]	relative viability EC50 (Calu-3 [8]) [µM]	cell viability (Caco-2 [9]; 1 nM) [%]	cell viability (Caco-2 [9]; 10 nM) [%]	cell viability (Caco-2 [9]; 100 nM) [%]	cell viability (Caco-2 [9]; 1000 nM) [%]	cell viability (Caco-2 [9]; 10000 nM) [%]	cell viability (Vero E6 [10]; 1 nM) [%]	cell viability (Vero E6 [10]; 10 nM) [%]	cell viability (Vero E6 [10]; 100 nM) [%]	cell viability (Vero E6 [10]; 1000 nM) [%]	cell viability (Vero E6 [10]; 10000 nM) [%]	cell viability (HepG2 [11]; 1 nM) [%]	cell viability (HepG2 [11]; 10 nM) [%]	cell viability (HepG2 [11]; 100 nM) [%]	cell viability (HepG2 [11]; 1000 nM) [%]	cell viability (HepG2 [11]; 10000 nM) [%]	cell viability (Calu-3 [12]; 1 nM) [%]	cell viability (Calu-3 [12]; 10 nM) [%]	cell viability (Calu-3 [12]; 100 nM) [%]	cell viability (Calu-3 [12]; 1000 nM) [%]	cell viability (Calu-3 [12]; 10000 nM) [%]	drug sensitivity score (U2OS [13])	relative viability EC50 (U2OS [14]) [µM]	cell viability (U2OS [15]; 1 nM) [%]	cell viability (U2OS [15]; 10 nM) [%]	cell viability (U2OS [15]; 100 nM) [%]	cell viability (U2OS [15]; 1000 nM) [%]	cell viability (U2OS [15]; 10000 nM) [%]
O=C(Cc1ccc(Cl)c(Cl)c1)N1CCCC[C@@H]1CN1CCCC1	0	0	0.4	0	> 10	> 10	> 10	> 10	85.2	97	104	95.5	102	102	104	99.5	105	98.7	95.8	93.5	99.1	89.8	83.5	100	105	92.1	109	103	–	–	–	–	–	–	–
CC(=O)Nc1ccccc1 [acetanilide]	0	0	–	0	> 10	> 10	–	> 10	98.1	101	94.5	107	94.4	109	93.7	102	103	104	–	–	–	–	–	95	94.6	103	98.2	99.8	0	> 10	105	99	103	99.1	98.9
CCOc1ccccc1C(=O)O [2-ethoxybenzoic-acid]	0	–	0	0	> 10	–	> 10	> 10	102	93.1	95.5	97.9	93.9	–	–	–	–	–	111	107	93.5	101	91.7	113	99.9	97.1	99.6	108	0	> 10	95.8	99.6	93.7	94.8	98.7
Clc1cccc(-n2nnnc2NCc2ccccc2Oc2ccccn2)c1Cl	0	–	0	0	> 10	–	> 10	> 10	104	97.1	104	96.2	96.1	–	–	–	–	–	104	98.4	104	104	92.1	92	93.5	88	89.1	102	0	> 10	101	98.9	100	102	98.9
